{"source": "paper PMC2698789", "about": "(Pancreas, 2008)", "origin": "cited, not measured here", "test_system": "sst 2 receptor", "data": [{"smiles": "C[C@@H](O)[C@@H]1NC(=O)[C@H](CCCCN)NC(=O)[C@@H](Cc2c[nH]c3ccccc23)NC(=O)[C@H](Cc2ccccc2)NC(=O)[C@@H](NC(=O)[C@H](N)Cc2ccccc2)CSSC[C@@H](C(=O)N[C@H](CO)[C@@H](C)O)NC1=O", "note": "[octreotide, Octreotide acetate]", "values": [{"measurement": "Receptor subtype preference among somatostatin receptors sst 1–sst 5", "result": "binds preferentially to sst 2"}]}]}
